Experimental data published in patent US20230028224A1, “Novel Topical Therapy” (priority 2019, published 2023).

Experiments:
[1] = injection of the Supratrochlear nerve followed by SPG block; format: in vivo; details: bupivacaine 0.5% injected to the Supratrochlear nerve, SPG block subsequently
Description: (§1) Another aspect of the invention is the combination of stimulation of SPG with branches of Trigeminal nerves, or occipital nerves. There is known C-2 and 3 connection with Trigeminal nerve and SPG and likely with C1.

[2] = injection of occipital nerves followed by SPG block; format: in vivo; details: 0.5% injected into occipital nerves, then SPG block
Description: as §1

## CCCCN1CCCCC1C(=O)Nc1c(C)cccc1C (centres unmarked) [bupivacaine]
[1]
  result of subsequent SPG block: better result with SPG block subsequently
[2]
  headache: headache was further decreased with SPG block
